Active and inactive are the calls of the source. The rule behind the calls is not given here.
What was measured:
[1] = tested on: BT-474; assay: Antitumor activity against human BT-474 expressing erbB2 cells xenografted bearing female athymic nu-nu CD-1 mouse assessed as tumor regrowth at 30 mg/kg, po bid administration and measured at 40 day; format: functional, organism-based
[2] = tested on: T47D; assay: Antiproliferative activity against human T47D cells assessed as inhibition of cell growth; format: functional, cell-based
[3] = tested on: COLO 205; assay: Antitumor activity against human COLO 205 low expressing erbB2 cells xenografted bearing female athymic nu-nu CD-1 mouse assessed as inhibition in tumor growth at 100 mg/kg, po bid administrated for 14 to 31 days relative to control; format: functional; conditions: time 14-31 day
[4] = biological target: T1, Receptor tyrosine-protein kinase erbB-2 (Homo sapiens, UniProt P04626); assay: Inhibition of human erbB2 intracellular domain transfected in mouse NIH3T3 cells assessed as potency reduction in autophosphorylation of the chimera erbB2 incubated for 2 hrs in the presence of EGF stimulation by westernblot analysis; format: cell-based
[5] = Toxicity in human erbB2 transfected FRE cells xenografted bearing female athymic nu-nu CD-1 mouse assessed as body weight loss at 50 mg/kg, po QD administrated for 8 to 40 days; format: organism-based; conditions: in vivo, time 8-40 day
[6] = tested on: BT-474; assay: Antitumor activity against human BT-474 cells expressing erbB2 xenografted bearing female athymic nu-nu CD-1 mouse assessed as inhibition in tumor growth at 100 mg/kg, po bid administration and measured at 40 day relative to control; format: functional; conditions: BT-474, 960 h
[7] = tested on: MDA-MB-453; assay: Antitumor activity against human MDA-MB-453 expressing erbB2 cells xenografted bearing female athymic nu-nu CD-1 mouse assessed as inhibition in tumor growth at 100 mg/kg, po bid administration and measured at 29 day relative to control; format: functional; conditions: MDA-MB-453, 696 h
[8] = tested on: MDA-MB-175-VII; assay: Antiproliferative activity against human MDA-MB-175-VII cells assessed as inhibition of cell growth; format: functional, cell-based
[9] = tested on: BT-474; assay: Antitumor activity against human BT-474 high expressing erbB2 cells xenografted bearing female athymic nu-nu CD-1 mouse assessed as reduction in tumor phospho-Erk level at 30 to 100 mg/kg, po after 0.5 hrs administration by western blot analysis relative to control; format: functional; parameters: scale not given: the % may be the effect or the level left; conditions: dose 30-100 mg/kg
[10] = tested on: MDA-MB-453; assay: Antitumor activity against human MDA-MB-453 expressing erbB2 cells xenografted bearing female athymic nu-nu CD-1 mouse assessed as inhibition in tumor growth at 50 mg/kg, po bid administration and measured at 29 day relative to control; format: functional; conditions: MDA-MB-453, 696 h
[11] = tested on: MDA-MB-157; assay: Antiproliferative activity against human MDA-MB-157 cells assessed as inhibition of cell growth; format: functional, cell-based
[12] = biological target: T1, Receptor tyrosine-protein kinase erbB-2; assay: Inhibition of human recombinant intracellular domain of erbB2; format: cell-based
[13] = tested on: BT-474; assay: Antitumor activity against human BT-474 expressing erbB2 cells xenografted bearing female athymic nu-nu CD-1 mouse assessed as tumor regression at 100 mg/kg, po bid administration and measured at 9 day relative to control; format: functional
[14] = tested on: HCC1419; assay: Antiproliferative activity against human HCC1419 cells assessed as inhibition of cell growth; format: functional, cell-based
[15] = tested on: MDA-MB-453; assay: Antiproliferative activity against human MDA-MB-453 cells assessed as inhibition of cell growth; format: functional, cell-based
[16] = tested on: BT-474; assay: Antitumor activity against human BT-474 high expressing erbB2 cells xenografted bearing female athymic nu-nu CD-1 mouse assessed as reduction in tumor phospho-Akt level at 100 mg/kg, po after 0.5 hrs administration by western blot analysis relative to control; format: functional; parameters: scale not given: the % may be the effect or the level left
[17] = tested on: MDA-MB-361; assay: Antiproliferative activity against human MDA-MB-361 cells assessed as inhibition of cell growth; format: functional, cell-based
[18] = tested on: MDA-MB-453; assay: Antitumor activity against human MDA-MB-453 high expressing erbB2 cells xenografted bearing female athymic nu-nu CD-1 mouse assessed as inhibition in tumor regression at 100 mg/kg, po bid administrated for 8 to 40 days relative to control; format: functional; conditions: time 8-40 day
[19] = Antitumor activity against human erbB2 transfected FRE cells xenografted bearing female athymic nu-nu CD-1 mouse assessed as inhibition in tumor growth at 50 mg/kg, po QD administrated for 8 to 40 days relative to control; format: functional; conditions: time 8-40 day
[20] = tested on: BT-474; assay: Inhibition of colony formation in human BT-474 cells overexpressing erbB2 assessed as decrease in colony formation at 1 micromol/L by methanolic crystal violet staining relative to control; format: functional; conditions: dose 1 µmol/L
[21] = tested on: BT-474; assay: Antitumor activity against human BT-474 expressing erbB2 cells xenografted bearing female athymic nu-nu CD-1 mouse assessed as reduction in tumor erbB2 receptor phosphorylation at 1 to 30 mg/kg, po bid administration and measured at 40 day by ELISA method relative to control; format: functional; parameters: scale not given: the % may be the effect or the level left; conditions: dose 1-30 mg/kg
[22] = tested on: MCF7; assay: Antiproliferative activity against human MCF7 cells assessed as inhibition of cell growth; format: functional, cell-based
[23] = tested on: EFM-19; assay: Antiproliferative activity against human EFM-19 cells assessed as inhibition of cell growth; format: functional, cell-based
[24] = tested on: SK-BR-3; assay: Antiproliferative activity against human SK-BR-3 cells assessed as inhibition of cell growth; format: functional, cell-based
[25] = tested on: MDA-MB-453; assay: Antitumor activity against human MDA-MB-453 expressing erbB2 cells xenografted bearing female athymic nu-nu CD-1 mouse assessed as reduction in tumor erbB2 phosphorylation at 100 mg/kg, po bid administration and measured at 29 day by ELISA method relative to control; format: functional; parameters: scale not given: the % may be the effect or the level left
[26] = tested on: BT-474; assay: Antitumor activity against human BT-474 high expressing erbB2 cells xenografted bearing female athymic nu-nu CD-1 mouse assessed as reduction in tumor phospho-Akt level at 30 mg/kg, po after 0.5 hrs administration by western blot analysis relative to control; format: functional; parameters: scale not given: the % may be the effect or the level left
[27] = tested on: BT-474; assay: Antitumor activity against human BT-474 expressing erbB2 cells xenografted bearing female athymic nu-nu CD-1 mouse assessed as tumor regression at 100 mg/kg, po bid administration and measured at 40 day relative to control; format: functional
[28] = Antiproliferative activity against human KPL-1 cells assessed as inhibition of cell growth; format: functional, cell-based
[29] = tested on: BT-474; assay: Antitumor activity against human BT-474 expressing erbB2 cells xenografted bearing female athymic nu-nu CD-1 mouse assessed as inhibition in tumor growth at 1 mg/kg, po bid administration and measured at 40 day relative to control; format: functional; conditions: BT-474, 960 h
[30] = Antitumor activity against human erbB2 transfected FRE cells xenografted bearing female athymic nu-nu CD-1 mouse assessed as reduction in tumor erbB2 receptor phosphorylation at 25 mg/kg, po and measured at 30 mins by ELISA method relative to control; format: functional; parameters: scale not given: the % may be the effect or the level left; conditions: 0.5 h
[31] = tested on: BT-474; assay: Induction of cell cycle arrest in Her2-amplified human BT-474 cells overexpressing erbB2 assessed as reduction in S phase at 1 micromol/L incubated for 24 hrs by flow cytometry analysis relative to control; format: functional; parameters: scale not given: the % may be the effect or the level left; conditions: dose 1 µmol/L, at 1 µM
[32] = tested on: FRE; assay: Antitumor activity against human erbB2 transfected FRE cells xenografted bearing female athymic nu-nu CD-1 mouse assessed as increase in cleaved caspase-3 cells at 100 mg/kg, po administration and measured at 8 hrs by immunohistochemical analysis; format: functional, organism-based
[33] = tested on: BT-474; assay: Antitumor activity against human BT-474 expressing erbB2 cells xenografted bearing female athymic nu-nu CD-1 mouse assessed as inhibition in tumor growth at 50 to 100 mg/kg, po bid administration and measured at 4 day; format: functional, organism-based; conditions: dose 50-100 mg/kg

T1 sequence (P04626 whole entry, the tested form may be a part): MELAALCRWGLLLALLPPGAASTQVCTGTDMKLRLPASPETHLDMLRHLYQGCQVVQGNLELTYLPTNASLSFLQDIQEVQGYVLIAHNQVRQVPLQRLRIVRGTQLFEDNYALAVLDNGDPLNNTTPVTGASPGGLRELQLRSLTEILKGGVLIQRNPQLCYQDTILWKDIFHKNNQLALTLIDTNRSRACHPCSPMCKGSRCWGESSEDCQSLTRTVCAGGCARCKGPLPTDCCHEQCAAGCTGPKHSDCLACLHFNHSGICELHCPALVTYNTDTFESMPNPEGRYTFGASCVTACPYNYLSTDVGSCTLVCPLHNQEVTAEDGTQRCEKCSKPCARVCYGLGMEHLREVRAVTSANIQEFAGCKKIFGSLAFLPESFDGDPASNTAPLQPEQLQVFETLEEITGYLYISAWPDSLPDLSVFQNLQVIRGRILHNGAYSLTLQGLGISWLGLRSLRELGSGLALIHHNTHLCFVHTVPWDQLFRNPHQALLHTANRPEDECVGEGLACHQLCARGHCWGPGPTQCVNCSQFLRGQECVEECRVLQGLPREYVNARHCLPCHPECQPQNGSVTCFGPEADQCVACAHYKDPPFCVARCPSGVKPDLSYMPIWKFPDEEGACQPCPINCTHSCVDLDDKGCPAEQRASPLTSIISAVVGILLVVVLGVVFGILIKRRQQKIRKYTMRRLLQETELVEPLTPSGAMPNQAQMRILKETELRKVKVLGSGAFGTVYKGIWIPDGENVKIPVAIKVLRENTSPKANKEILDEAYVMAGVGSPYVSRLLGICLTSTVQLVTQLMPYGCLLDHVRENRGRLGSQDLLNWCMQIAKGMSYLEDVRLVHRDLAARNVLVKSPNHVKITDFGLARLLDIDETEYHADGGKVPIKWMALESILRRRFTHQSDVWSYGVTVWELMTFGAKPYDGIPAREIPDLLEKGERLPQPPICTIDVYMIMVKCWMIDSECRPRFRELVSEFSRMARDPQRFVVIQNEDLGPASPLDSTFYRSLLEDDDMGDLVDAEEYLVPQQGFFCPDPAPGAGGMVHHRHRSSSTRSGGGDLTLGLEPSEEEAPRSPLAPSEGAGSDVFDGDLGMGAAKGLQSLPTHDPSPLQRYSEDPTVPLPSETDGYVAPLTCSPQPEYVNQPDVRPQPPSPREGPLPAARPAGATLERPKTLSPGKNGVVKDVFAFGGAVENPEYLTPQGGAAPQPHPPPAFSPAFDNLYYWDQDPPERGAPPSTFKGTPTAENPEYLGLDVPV

Compound: COCC(=O)NC/C=C/c1ccc2ncnc(Nc3ccc(Oc4ccc(C)nc4)c(C)c3)c2c1 [CP-724714]
- Activity [1]: Active
- IC50 [2]: 2.4 µM
- inhibition in vivo at 100 mg/kg [3]: 46%
- IC50 [4]: 0.032 µM
- Activity [5]: Non-Toxic
- inhibition in vivo at 100 mg/kg [6]: 100%
- inhibition in vivo at 100 mg/kg [7]: 83%
- IC50 [8]: 0.81 µM
- Activity [9]: ~75%
- inhibition in vivo at 50 mg/kg [10]: 66%
- IC50 [11]: > 10 µM
- IC50 [12]: 0.01 µM
- Activity [13]: ~6%
- IC50 [14]: 1 µM
- IC50 [15]: 2.5 µM
- Activity [16]: 70%
- IC50 [17]: 3.7 µM
- inhibition in vivo at 100 mg/kg [18]: 83%
- inhibition in vivo at 50 mg/kg [19]: ~50%
- inhibition at 1 µM [20]: > 80%
- Activity [21]: 10%
- IC50 [22]: 9.8 µM
- IC50 [23]: > 10 µM
- IC50 [24]: 0.95 µM
- Activity [25]: 69%
- Activity [26]: 42%
- Activity [27]: 61%
- IC50 [28]: > 10 µM
- inhibition in vivo at 1 mg/kg [29]: 41%
- Activity [30]: ~75%
- Activity [31]: 3.2%
- Activity [32]: Active
- inhibition [33]: Active

Reference: ChEMBL document CHEMBL5661975, “Discovery and pharmacologic characterization of CP-724,714, a selective ErbB2 tyrosine kinase inhibitor” (Cancer Res, 2007)
